Assays:
[1] = test system: histamine H2-receptors; test: Inhibition of histamine-stimulated gastric acid secretion from lumen-perfused stomachs of anaesthetised rats; type: in vivo; conditions: i.v., lumen-perfused stomachs of rats anaesthetised with urethane
[2] = target: T1, histamine H2-receptors (Cavia porcellus, UniProt P47747); test: Inhibition of histamine-induced tachycardia in the isolated guinea pig atrium; conditions: read-out: effective dose producing 50% inhibition of the histamine-induced tachycardia
T1 construct: histamine-induced tachycardia in the isolated guinea pig atrium; from tissue; host or cells: isolated guinea pig atrium
T1 sequence (P47747 whole entry): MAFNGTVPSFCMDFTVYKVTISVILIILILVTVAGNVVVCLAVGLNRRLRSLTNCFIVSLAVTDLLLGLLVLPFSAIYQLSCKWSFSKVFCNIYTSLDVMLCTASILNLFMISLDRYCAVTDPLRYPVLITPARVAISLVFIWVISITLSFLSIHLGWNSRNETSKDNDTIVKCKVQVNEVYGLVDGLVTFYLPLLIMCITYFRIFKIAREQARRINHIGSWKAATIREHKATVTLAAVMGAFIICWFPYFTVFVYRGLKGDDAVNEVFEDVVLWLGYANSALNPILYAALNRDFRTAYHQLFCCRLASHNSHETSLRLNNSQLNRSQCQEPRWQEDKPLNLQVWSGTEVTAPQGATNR
From the text: This procedure is referred to in Ash and Schild, Brit. J. Pharmac. Chemother., 1966. 27. […] For example, they inhibit the actions of histamine on the isolated guinea pig atrium.

IC50 [2]: < 1000 nM
Structure (SMILES): N=C(N)Nc1nc(CSCCNc2[nH]ccc2[N+](=O)[O-])cs1 [Example 1, 2-[2-(2-Guanidino-4-thiazolylmethylthio)ethylamin]-3-nitropyrrole]
doses causing 50% inhibition of maximal acid secretion [1]: less than 0.1 micromole kg^-1

— patent publication EP0028117A1, “Guanidine compounds, process for preparing them and compositions containing them” (SMITH KLINE & FRENCH LABORATORIES LIMITED, priority 1979, dated 1981)
